Reference: ChEMBL document CHEMBL4507270 (2021)

Columns and labels:
[1] = target: D(2) dopamine receptor (Homo sapiens, UniProt P14416); settings: Compound concentration 10.0 uM
[2] = target: Serine/threonine-protein kinase TBK1 (Homo sapiens) (UniProt Q9UHD2)
[3] = target: Vascular endothelial growth factor receptor 3 (Homo sapiens, UniProt P35916)
[4] = target: Mitogen-activated protein kinase kinase kinase kinase 2 (Homo sapiens) (UniProt Q12851)
[5] = target: Tyrosine-protein kinase Fyn (Homo sapiens) (UniProt P06241)
[6] = target: Casein kinase II subunit alpha (Homo sapiens) (UniProt P68400)
[7] = target: Ephrin type-A receptor 3 (Homo sapiens) (UniProt P29320)
Ephrin type-A receptor 3 (Homo sapiens), sequence (P29320 whole entry): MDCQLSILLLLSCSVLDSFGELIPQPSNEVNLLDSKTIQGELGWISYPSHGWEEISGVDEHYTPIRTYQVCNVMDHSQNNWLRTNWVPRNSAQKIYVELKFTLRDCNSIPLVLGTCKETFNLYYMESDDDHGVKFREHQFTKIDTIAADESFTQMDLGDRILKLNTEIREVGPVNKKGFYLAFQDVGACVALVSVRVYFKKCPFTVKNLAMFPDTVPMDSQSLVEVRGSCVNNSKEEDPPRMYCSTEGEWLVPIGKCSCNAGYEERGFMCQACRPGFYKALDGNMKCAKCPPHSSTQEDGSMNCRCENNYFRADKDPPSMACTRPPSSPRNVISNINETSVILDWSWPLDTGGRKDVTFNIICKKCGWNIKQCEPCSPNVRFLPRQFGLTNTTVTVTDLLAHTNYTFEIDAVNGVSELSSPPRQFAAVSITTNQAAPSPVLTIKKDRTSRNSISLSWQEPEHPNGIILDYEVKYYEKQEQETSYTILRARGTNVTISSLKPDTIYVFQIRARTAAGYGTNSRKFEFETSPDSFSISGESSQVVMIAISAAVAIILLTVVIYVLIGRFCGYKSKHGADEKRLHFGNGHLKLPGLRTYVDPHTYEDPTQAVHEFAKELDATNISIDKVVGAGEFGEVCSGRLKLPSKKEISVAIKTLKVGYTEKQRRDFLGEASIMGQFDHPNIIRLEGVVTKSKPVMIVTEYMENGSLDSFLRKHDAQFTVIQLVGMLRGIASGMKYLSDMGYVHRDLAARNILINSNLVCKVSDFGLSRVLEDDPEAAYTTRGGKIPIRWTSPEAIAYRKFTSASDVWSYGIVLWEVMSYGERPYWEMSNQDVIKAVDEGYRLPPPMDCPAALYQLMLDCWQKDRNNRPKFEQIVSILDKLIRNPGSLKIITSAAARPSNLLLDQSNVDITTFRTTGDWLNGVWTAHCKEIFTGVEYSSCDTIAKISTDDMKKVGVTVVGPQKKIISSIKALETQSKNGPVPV

[8] = target: Mitogen-activated protein kinase kinase kinase kinase 4 (Homo sapiens) (UniProt O95819)
[9] = target: Tyrosine-protein kinase CSK (Homo sapiens) (UniProt P41240)
[10] = target: Tyrosine-protein kinase ABL1 (Homo sapiens) (UniProt P00519)
Tyrosine-protein kinase ABL1 (Homo sapiens), sequence (P00519 whole entry): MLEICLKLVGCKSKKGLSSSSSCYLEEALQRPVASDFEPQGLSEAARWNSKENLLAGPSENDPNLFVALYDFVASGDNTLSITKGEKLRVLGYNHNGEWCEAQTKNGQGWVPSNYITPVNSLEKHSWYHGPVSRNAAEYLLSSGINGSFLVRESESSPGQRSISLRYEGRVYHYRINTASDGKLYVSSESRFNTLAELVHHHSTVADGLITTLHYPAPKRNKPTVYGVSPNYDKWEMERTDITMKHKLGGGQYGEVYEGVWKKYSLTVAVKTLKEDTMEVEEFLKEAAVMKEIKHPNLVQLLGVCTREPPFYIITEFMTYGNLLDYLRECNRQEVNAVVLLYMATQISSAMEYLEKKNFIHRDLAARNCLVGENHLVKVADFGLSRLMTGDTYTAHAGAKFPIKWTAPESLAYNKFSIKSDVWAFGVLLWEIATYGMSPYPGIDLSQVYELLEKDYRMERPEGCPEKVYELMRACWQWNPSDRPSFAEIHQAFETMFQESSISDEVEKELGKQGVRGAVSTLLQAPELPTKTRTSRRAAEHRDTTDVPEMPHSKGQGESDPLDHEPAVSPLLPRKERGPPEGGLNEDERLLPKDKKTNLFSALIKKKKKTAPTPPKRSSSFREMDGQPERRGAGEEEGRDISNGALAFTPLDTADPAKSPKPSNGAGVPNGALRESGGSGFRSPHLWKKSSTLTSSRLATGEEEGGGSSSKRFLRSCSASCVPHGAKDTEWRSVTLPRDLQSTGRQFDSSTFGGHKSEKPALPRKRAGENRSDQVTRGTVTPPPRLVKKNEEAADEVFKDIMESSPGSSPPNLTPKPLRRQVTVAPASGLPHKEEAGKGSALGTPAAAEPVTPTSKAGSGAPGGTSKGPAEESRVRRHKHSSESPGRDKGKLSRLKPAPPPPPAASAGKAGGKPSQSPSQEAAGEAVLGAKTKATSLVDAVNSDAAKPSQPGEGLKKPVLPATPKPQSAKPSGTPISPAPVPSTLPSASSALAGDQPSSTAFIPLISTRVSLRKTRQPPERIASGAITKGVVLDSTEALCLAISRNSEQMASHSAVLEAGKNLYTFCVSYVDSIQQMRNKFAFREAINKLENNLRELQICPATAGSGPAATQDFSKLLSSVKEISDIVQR

[11] = system: Epidermal growth factor receptor (Homo sapiens), P00533 [UNDEFINED MUTATION]
[12] = target: Casein kinase I isoform epsilon (Homo sapiens) (UniProt P49674)
[13] = target: Dual specificity mitogen-activated protein kinase kinase 1 (Homo sapiens) (UniProt Q02750)
[14] = target: Ephrin type-A receptor 2 (Homo sapiens) (UniProt P29317)
[15] = target: G protein-coupled receptor kinase 3 (Homo sapiens) (UniProt P35626)
[16] = target: SNF-related serine/threonine-protein kinase (Homo sapiens) (UniProt Q9NRH2)
[17] = target: Mitogen-activated protein kinase kinase kinase 5 (Homo sapiens) (UniProt Q99683)
[18] = target: Cyclin-dependent kinase 4 (Homo sapiens) (UniProt P11802)
Cyclin-dependent kinase 4 (Homo sapiens), sequence (P11802 whole entry): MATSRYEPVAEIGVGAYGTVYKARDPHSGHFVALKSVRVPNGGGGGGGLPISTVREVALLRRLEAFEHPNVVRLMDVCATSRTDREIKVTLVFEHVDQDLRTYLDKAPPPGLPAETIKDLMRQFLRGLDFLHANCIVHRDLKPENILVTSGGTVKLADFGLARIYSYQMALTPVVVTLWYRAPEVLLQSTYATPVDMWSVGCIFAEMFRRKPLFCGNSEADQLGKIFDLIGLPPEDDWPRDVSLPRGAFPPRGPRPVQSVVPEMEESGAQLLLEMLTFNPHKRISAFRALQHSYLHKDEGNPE

[19] = target: Dual specificity mitogen-activated protein kinase kinase 3 (Homo sapiens) (UniProt P46734)
[20] = target: Tyrosine-protein kinase Blk (Homo sapiens) (UniProt P51451)
[21] = target: Casein kinase II subunit alpha' (Homo sapiens) (UniProt P19784)
[22] = target: 5-hydroxytryptamine receptor 7 (Homo sapiens) (UniProt P34969); settings: Compound concentration 10.0 uM
[23] = target: Alpha-2A adrenergic receptor (Homo sapiens) (UniProt P08913); settings: Compound concentration 10.0 uM
[24] = target: Serine/threonine-protein kinase ULK2 (Homo sapiens) (UniProt Q8IYT8)
[25] = target: D(1A) dopamine receptor (Homo sapiens) (UniProt P21728); settings: Compound concentration 10.0 uM
[26] = target: Serine/threonine-protein kinase Nek11 (Homo sapiens) (UniProt Q8NG66)
[27] = target: LIM domain kinase 1 (Homo sapiens) (UniProt P53667)
[28] = target: Calcium/calmodulin-dependent protein kinase type IV (Homo sapiens) (UniProt Q16566)
[29] = target: ALK tyrosine kinase receptor (Homo sapiens) (UniProt Q9UM73)
[30] = target: Serine/threonine-protein kinase D2 (Homo sapiens) (UniProt Q9BZL6)
[31] = target: Mitogen-activated protein kinase kinase kinase 11 (Homo sapiens) (UniProt Q16584)
[32] = target: Ribosomal protein S6 kinase alpha-2 (Homo sapiens) (UniProt Q15349)
[33] = target: Casein kinase I isoform gamma-3 (Homo sapiens) (UniProt Q9Y6M4)
[34] = target: Serine/threonine-protein kinase tousled-like 2 (Homo sapiens) (UniProt Q86UE8)
[35] = target: 5'-AMP-activated protein kinase catalytic subunit alpha-1 (Homo sapiens) (UniProt Q13131)
[36] = target: Tyrosine-protein kinase Fgr (Homo sapiens) (UniProt P09769)
Tyrosine-protein kinase Fgr (Homo sapiens), sequence (P09769 2-529 limits assumed): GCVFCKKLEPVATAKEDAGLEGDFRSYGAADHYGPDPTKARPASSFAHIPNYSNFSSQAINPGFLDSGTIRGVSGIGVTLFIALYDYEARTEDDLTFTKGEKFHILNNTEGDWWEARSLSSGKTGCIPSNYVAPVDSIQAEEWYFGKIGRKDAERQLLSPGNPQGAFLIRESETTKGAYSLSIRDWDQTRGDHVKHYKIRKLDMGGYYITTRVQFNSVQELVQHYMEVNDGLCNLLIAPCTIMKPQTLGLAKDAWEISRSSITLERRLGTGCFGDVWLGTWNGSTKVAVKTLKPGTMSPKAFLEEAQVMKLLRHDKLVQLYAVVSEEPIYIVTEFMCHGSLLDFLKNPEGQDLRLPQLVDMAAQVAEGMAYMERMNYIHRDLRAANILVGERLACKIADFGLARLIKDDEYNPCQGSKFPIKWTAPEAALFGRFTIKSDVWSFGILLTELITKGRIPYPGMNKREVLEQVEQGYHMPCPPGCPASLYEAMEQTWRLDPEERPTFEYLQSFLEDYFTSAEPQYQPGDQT

[37] = target: Tyrosine-protein kinase JAK2 (Homo sapiens) (UniProt O60674)
[38] = target: Tyrosine-protein kinase FRK (Homo sapiens) (UniProt P42685)
[39] = target: Activin receptor type-2A (Homo sapiens) (UniProt P27037)
[40] = target: Dual serine/threonine and tyrosine protein kinase (Homo sapiens) (UniProt Q6XUX3)
[41] = target: Serine/threonine-protein kinase 38 (Homo sapiens) (UniProt Q15208)
[42] = target: Phosphatidylinositol 4,5-bisphosphate 3-kinase catalytic subunit alpha isoform (Homo sapiens) (UniProt P42336)
[43] = target: AP2-associated protein kinase 1 (Homo sapiens) (UniProt Q2M2I8)
[44] = target: Death-associated protein kinase 2 (Homo sapiens) (UniProt Q9UIK4)
[45] = target: Angiopoietin-1 receptor (Homo sapiens, UniProt Q02763)
[46] = target: Interleukin-1 receptor-associated kinase 4 (Homo sapiens) (UniProt Q9NWZ3)
[47] = Compound concentration 100.0 nM
[48] = Compound concentration 1000.0 nM

Serine/threonine-protein kinase TBK1 (Homo sapiens), sequence (Q9UHD2 whole entry): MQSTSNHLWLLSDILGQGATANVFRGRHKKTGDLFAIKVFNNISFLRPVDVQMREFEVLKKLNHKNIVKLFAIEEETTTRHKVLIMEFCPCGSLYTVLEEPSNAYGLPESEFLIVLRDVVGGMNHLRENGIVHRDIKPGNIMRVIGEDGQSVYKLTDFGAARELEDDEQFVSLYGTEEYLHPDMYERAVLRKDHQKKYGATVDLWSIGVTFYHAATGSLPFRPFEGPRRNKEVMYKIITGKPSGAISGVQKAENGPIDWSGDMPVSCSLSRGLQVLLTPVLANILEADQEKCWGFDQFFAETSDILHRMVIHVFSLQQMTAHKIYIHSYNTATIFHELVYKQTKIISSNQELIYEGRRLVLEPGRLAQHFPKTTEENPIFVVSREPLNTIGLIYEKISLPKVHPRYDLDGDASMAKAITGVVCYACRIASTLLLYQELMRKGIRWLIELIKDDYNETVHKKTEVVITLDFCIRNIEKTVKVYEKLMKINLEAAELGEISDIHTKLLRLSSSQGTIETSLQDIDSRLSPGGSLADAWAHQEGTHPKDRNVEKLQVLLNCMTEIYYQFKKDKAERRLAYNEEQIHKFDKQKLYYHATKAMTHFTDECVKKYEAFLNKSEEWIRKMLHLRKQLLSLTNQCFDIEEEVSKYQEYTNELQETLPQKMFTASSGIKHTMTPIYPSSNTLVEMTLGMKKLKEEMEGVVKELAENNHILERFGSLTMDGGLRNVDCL
Vascular endothelial growth factor receptor 3, sequence (P35916 whole entry): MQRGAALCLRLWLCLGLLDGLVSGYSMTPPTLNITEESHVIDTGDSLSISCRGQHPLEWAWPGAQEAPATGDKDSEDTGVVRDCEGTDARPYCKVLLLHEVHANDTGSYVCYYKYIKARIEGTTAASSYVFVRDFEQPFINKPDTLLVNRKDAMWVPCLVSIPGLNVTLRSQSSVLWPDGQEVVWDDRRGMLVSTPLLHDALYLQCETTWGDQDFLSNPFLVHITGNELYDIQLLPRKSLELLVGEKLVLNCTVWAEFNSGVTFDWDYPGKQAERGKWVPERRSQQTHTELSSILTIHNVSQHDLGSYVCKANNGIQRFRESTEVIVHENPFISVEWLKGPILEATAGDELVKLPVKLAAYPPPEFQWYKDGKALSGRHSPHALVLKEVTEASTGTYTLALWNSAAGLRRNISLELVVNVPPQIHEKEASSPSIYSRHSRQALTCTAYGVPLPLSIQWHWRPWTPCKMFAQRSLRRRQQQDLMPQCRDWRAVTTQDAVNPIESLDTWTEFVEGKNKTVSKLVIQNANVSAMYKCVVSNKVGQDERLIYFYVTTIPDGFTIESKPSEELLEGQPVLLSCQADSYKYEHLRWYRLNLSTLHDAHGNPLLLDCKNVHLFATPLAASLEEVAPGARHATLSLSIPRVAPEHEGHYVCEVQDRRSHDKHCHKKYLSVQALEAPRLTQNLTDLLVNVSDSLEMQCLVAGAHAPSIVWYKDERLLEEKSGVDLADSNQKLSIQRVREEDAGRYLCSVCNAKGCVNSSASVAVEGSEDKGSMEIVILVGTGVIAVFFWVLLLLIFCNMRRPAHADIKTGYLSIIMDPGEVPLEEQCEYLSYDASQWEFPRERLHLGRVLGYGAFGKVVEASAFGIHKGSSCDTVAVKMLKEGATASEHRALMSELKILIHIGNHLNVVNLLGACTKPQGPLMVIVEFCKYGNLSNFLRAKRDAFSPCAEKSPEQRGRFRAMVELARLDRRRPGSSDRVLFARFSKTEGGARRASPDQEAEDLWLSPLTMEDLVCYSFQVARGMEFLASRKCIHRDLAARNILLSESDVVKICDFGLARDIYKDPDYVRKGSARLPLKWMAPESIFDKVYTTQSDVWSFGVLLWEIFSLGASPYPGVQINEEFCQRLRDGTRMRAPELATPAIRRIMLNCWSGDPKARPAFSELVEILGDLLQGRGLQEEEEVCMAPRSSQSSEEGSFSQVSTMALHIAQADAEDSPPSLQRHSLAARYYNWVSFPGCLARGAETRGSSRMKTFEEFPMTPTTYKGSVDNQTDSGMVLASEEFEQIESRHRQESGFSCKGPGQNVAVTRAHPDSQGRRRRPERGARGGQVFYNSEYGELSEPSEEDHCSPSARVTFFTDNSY

## Cc1cc(C)c(-n2ccn3nc(-c4cccnc4)cc23)cc1NC(=O)c1cc(C#N)cc(S(F)(F)(F)(F)F)c1 [BAY-826]
[1]
  inhibition: 8.74%
[2]; [47]
  residual activity: 62.8%
[3]; [47]
  residual activity: 77.6%
[4]; [47]
  residual activity: 53.1%
[5]; [47]
  residual activity: 97.5%
[6]; [47]
  residual activity: 74.2%
[7]; [47]
  residual activity: 89.8%
[8]; [47]
  residual activity: 95.1%
[9]; [47]
  residual activity: 77.9%
[10]; [47]
  residual activity: 29.2%
[11]; [47]
  residual activity: 72.9%
[12]; [47]
  residual activity: 98.7%
[13]; [47]
  residual activity: 76.2%
[14]; [47]
  residual activity: 79.6%
[15]; [47]
  residual activity: 90.6%
[16]; [47]
  residual activity: 100%
[17]; [47]
  residual activity: 100%
[18]; [47]
  residual activity: 86.2%
[19]; [47]
  residual activity: 81.9%
[20]; [47]
  residual activity: 100%
[21]; [47]
  residual activity: 82.4%
[22]
  inhibition: -3.4%
[23]
  inhibition: 11.1%
[24]; [47]
  residual activity: 100%
[25]
  inhibition: 4.82%
[26]; [47]
  residual activity: 86.1%
[27]; [47]
  residual activity: 83.6%
[28]; [47]
  residual activity: 93.9%
[29]; [47]
  residual activity: 94.4%
[30]; [47]
  residual activity: 100%
[31]; [47]
  residual activity: 100%
[32]; [47]
  residual activity: 65.1%
[33]; [47]
  residual activity: 93.7%
[34]; [47]
  residual activity: 100%
[35]; [47]
  residual activity: 77%
[36]; [47]
  residual activity: 84.9%
[37]; [47]
  residual activity: 81.8%
[38]; [47]
  residual activity: 59.1%
[39]; [47]
  residual activity: 100%
[40]; [47]
  residual activity: 71.1%
[41]; [47]
  residual activity: 80.4%
[42]; [47]
  residual activity: 87.9%
[43]; [47]
  residual activity: 95.9%
[44]; [47]
  residual activity: 75.8%
[45]; [47]
  residual activity: 3.1%
[46]; [47]
  residual activity: 100%

## Cc1cc(NC(=O)c2cccc(S(F)(F)(F)(F)F)c2)cc(-n2ccn3nc(-c4cccnc4)cc23)c1 [BAY-309]
[1]
  inhibition: 62.1%
[2]; [48]
  residual activity: 49.7%
[3]; [48]
  residual activity: 82.3%
[4]; [48]
  residual activity: 100%
[5]; [48]
  residual activity: 81.3%
[6]; [48]
  residual activity: 66.7%
[7]; [48]
  residual activity: 100%
[8]; [48]
  residual activity: 100%
[9]; [48]
  residual activity: 100%
[10]; [48]
  residual activity: 52.2%
[11]; [48]
  residual activity: 100%
[12]; [48]
  residual activity: 75.7%
[13]; [48]
  residual activity: 100%
[14]; [48]
  residual activity: 100%
[15]; [48]
  residual activity: 74.8%
[16]; [48]
  residual activity: 100%
[17]; [48]
  residual activity: 100%
[18]; [48]
  residual activity: 100%
[19]; [48]
  residual activity: 62.1%
[20]; [48]
  residual activity: 100%
[21]; [48]
  residual activity: 100%
[22]
  inhibition: 6.71%
[23]
  inhibition: 15.8%
[24]; [48]
  residual activity: 73.7%
[25]
  inhibition: 20.6%
[26]; [48]
  residual activity: 57.5%
[27]; [48]
  residual activity: 100%
[28]; [48]
  residual activity: 80.5%
[29]; [48]
  residual activity: 68.1%
[30]; [48]
  residual activity: 100%
[31]; [48]
  residual activity: 100%
[32]; [48]
  residual activity: 100%
[33]; [48]
  residual activity: 100%
[34]; [48]
  residual activity: 94.3%
[35]; [48]
  residual activity: 100%
[36]; [48]
  residual activity: 100%
[37]; [48]
  residual activity: 85.3%
[38]; [48]
  residual activity: 100%
[39]; [48]
  residual activity: 100%
[40]; [48]
  residual activity: 72.8%
[41]; [48]
  residual activity: 92.3%
[42]; [48]
  residual activity: 100%
[43]; [48]
  residual activity: 100%
[44]; [48]
  residual activity: 100%
[45]; [48]
  residual activity: 84.2%
[46]; [48]
  residual activity: 98.4%
